Test results from patent US7786046B2, “Benzoyl-substituted serineamides” (BASF Aktiengesellschaft, priority 2005, dated 2010).

melting point [°C] | Compound
163 | CNC(=O)C(NC(=O)c1ccc(F)cc1C(F)(F)F)C(O)CO (stereo not shown) [Compound 3.8, 2-(4-Fluoro-2-trifluoromethylbenzoylamino)-3,4-dihydroxy-N-methylbutyramide]
212 | CNC(=O)C(NC(=O)c1ccc(F)cc1C(F)(F)F)C(O)C(F)(F)F (racemic) [Compound 3.1, 4-Fluoro-N-(3,3,3-trifluoro-2-hydroxy-1-methylcarbamoylpropyl)-2-trifluoromethylbenzamide]
140 | CNC(=O)C(NC(=O)c1ccc(F)cc1C(F)(F)F)C(O)/C(Cl)=C/c1ccccc1 (racemic) [Compound 3.7, N-(3-Chloro-2-hydroxy-1-methylcarbamoyl-4-phenylbut-3-enyl)-4-fluoro-2-trifluoromethylbenzamide]
163 | C=CC(O)C(NC(=O)c1ccc(F)cc1C(F)(F)F)C(=O)NC (racemic) [Compound 3.3, N-(2-Hydroxy-1-methylcarbamoylbut-3-enyl)-4-fluoro-2-trifluoromethylbenzamide]
